Test results as given in paper PMC4457528, “Identification of Novel Small Molecule Inhibitors of Oncogenic RET Kinase” (PLoS ONE, 2015).
Read-outs that look alike come from different tables or passages of the source.

How the values were obtained:
Experiment in all cases: KinomeScan kinase panel, single concentration 10 µM
Format in all cases: binding
[1] = biological target: T1, KinomeScan kinase panel (Homo sapiens, UniProt Q8IWQ3); details: BRSK2, 10 µM; read-out: score (%)
T1 construct: purchased DiscoveRx (KinomeScan)
T1 sequence (Q8IWQ3 1-736): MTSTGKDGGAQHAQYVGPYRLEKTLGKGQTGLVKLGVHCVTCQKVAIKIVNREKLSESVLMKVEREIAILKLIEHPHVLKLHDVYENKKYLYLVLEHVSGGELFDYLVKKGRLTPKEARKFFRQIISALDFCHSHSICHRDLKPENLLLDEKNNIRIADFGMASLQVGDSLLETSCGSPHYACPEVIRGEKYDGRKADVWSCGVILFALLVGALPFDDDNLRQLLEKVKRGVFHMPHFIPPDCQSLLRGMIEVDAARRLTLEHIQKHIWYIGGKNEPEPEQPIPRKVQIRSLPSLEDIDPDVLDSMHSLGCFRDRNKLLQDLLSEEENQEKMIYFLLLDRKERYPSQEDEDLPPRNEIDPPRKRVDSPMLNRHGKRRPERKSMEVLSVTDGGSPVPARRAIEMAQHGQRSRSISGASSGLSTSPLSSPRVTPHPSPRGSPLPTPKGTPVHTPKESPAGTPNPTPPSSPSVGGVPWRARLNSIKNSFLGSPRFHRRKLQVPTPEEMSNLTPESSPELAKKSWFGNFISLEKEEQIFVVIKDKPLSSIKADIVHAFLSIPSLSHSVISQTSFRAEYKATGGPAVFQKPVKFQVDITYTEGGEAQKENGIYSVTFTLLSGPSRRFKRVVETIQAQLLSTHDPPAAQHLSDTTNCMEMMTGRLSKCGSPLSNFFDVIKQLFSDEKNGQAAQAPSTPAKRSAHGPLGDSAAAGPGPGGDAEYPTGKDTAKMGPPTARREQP

[2] = biological target: T2, KinomeScan kinase panel (Homo sapiens, UniProt P27361); details: ERK1, 10 µM; read-out: score (%)
T2 construct: purchased DiscoveRx (KinomeScan)
T2 sequence (P27361 whole entry): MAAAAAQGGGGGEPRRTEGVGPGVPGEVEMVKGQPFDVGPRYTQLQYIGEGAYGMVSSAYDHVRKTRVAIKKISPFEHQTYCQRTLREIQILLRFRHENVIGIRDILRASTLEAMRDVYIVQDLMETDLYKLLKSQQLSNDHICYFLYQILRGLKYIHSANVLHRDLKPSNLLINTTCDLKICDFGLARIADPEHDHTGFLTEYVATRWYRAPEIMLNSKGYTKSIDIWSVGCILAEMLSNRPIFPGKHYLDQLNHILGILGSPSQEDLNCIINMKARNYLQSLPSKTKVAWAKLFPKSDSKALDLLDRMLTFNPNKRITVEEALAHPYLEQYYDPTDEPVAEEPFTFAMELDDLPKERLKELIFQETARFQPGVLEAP

[3] = biological target: T3, KinomeScan kinase panel (Homo sapiens, UniProt Q8WXR4); details: MYO3B, 10 µM; read-out: score (%)
T3 construct: purchased DiscoveRx (KinomeScan)
T3 sequence (Q8WXR4 1-1341): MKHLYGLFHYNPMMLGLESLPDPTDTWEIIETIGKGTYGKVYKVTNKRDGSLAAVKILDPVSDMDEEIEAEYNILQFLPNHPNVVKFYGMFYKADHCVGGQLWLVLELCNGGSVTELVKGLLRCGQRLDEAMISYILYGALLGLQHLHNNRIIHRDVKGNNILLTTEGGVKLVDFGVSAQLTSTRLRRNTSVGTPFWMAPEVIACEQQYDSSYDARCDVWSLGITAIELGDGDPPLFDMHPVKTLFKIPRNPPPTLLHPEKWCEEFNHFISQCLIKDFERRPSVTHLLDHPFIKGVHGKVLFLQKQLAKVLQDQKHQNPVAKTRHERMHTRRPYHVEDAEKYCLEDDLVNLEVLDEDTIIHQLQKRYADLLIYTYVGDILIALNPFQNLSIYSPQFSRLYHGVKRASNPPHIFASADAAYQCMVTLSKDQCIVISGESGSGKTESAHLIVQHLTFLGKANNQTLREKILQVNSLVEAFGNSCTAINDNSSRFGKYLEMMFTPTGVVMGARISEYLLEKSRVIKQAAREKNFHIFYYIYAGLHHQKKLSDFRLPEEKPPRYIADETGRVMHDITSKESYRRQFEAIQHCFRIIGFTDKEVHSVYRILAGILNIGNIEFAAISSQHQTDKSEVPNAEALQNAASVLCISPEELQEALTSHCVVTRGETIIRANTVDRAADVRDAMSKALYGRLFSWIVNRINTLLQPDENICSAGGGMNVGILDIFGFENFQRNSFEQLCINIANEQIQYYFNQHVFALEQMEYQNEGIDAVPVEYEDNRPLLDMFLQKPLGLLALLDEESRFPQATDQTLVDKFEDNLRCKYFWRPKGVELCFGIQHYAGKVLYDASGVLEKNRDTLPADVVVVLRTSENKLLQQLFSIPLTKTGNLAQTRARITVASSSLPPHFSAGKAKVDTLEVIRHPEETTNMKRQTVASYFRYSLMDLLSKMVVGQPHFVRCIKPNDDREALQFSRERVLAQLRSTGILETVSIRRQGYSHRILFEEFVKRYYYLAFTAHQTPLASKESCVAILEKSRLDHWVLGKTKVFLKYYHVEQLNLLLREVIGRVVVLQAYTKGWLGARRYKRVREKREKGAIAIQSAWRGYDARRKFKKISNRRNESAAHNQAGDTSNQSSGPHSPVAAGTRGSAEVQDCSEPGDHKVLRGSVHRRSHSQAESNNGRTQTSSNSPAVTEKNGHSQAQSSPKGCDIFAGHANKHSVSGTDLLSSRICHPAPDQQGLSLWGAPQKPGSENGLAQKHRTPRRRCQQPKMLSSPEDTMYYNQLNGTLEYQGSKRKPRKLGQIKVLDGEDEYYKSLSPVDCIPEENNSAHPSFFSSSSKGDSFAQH

[4] = biological target: T4, KinomeScan kinase panel (Homo sapiens, UniProt P24941); details: CDK2, 10 µM
T4 construct: purchased DiscoveRx (KinomeScan)

[5] = biological target: T5, KinomeScan kinase panel (Homo sapiens, UniProt P51812); details: 10 µM, read-out: score (%)
T5 construct: purchased DiscoveRx (KinomeScan)

[6] = biological target: T6, KinomeScan kinase panel (Homo sapiens, UniProt Q9H2G2); details: 10 µM, read-out: score (%)
T6 construct: purchased DiscoveRx (KinomeScan)
T6 sequence (Q9H2G2 whole entry): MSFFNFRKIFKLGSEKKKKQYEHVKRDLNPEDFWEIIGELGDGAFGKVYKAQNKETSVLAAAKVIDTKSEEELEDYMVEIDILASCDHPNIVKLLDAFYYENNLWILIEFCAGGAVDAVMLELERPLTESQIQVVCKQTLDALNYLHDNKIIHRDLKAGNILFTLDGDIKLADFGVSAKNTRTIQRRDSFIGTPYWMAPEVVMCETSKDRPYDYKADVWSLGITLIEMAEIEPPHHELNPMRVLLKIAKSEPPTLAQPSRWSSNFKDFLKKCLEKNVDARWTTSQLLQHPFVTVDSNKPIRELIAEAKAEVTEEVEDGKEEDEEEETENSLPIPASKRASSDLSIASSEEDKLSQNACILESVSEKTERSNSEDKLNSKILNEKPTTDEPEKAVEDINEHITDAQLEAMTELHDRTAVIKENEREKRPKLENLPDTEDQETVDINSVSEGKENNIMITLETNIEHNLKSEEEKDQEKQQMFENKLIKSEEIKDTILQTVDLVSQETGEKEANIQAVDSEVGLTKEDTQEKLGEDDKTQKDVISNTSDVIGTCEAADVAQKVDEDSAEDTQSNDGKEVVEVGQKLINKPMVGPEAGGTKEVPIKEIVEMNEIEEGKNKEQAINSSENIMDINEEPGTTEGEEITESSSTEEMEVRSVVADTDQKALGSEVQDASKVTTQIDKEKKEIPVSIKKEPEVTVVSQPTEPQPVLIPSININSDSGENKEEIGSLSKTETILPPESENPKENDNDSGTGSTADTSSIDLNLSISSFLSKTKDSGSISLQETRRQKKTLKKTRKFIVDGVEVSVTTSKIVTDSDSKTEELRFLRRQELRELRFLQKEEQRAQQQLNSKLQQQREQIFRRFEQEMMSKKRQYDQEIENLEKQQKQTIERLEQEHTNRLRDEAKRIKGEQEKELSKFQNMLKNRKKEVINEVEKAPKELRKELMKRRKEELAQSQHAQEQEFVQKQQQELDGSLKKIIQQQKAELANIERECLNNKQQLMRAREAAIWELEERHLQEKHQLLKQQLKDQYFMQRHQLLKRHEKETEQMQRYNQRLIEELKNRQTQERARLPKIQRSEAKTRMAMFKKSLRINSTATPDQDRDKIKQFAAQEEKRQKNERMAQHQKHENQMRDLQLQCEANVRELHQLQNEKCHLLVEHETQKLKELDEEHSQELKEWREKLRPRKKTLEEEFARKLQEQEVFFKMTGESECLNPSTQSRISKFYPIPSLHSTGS

[7] = biological target: T7, KinomeScan kinase panel (Homo sapiens, UniProt Q86Z02); details: HIPK1, 10 µM; read-out: score (%)
T7 construct: purchased DiscoveRx (KinomeScan)

[8] = biological target: T8, KinomeScan kinase panel (Homo sapiens, UniProt Q9NY57); details: kinase YANK2; 10 µM; read-out: score (%)
T8 construct: purchased DiscoveRx (KinomeScan)
T8 sequence (Q9NY57 whole entry): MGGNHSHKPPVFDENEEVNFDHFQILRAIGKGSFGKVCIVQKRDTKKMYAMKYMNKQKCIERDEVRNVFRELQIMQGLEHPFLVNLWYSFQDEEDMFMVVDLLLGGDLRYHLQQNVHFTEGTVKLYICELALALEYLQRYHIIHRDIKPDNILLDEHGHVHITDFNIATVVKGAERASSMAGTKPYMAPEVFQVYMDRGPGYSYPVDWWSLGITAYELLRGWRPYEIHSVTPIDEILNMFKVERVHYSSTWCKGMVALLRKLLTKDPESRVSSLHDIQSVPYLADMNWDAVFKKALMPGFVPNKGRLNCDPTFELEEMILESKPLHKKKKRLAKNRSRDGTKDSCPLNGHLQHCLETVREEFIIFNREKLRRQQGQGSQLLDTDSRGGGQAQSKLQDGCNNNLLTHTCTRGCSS

[9] = biological target: T9, KinomeScan kinase panel (Homo sapiens, UniProt Q86UE8); details: read-out: score (%)
T9 construct: purchased DiscoveRx (KinomeScan)
T9 sequence (Q86UE8 whole entry): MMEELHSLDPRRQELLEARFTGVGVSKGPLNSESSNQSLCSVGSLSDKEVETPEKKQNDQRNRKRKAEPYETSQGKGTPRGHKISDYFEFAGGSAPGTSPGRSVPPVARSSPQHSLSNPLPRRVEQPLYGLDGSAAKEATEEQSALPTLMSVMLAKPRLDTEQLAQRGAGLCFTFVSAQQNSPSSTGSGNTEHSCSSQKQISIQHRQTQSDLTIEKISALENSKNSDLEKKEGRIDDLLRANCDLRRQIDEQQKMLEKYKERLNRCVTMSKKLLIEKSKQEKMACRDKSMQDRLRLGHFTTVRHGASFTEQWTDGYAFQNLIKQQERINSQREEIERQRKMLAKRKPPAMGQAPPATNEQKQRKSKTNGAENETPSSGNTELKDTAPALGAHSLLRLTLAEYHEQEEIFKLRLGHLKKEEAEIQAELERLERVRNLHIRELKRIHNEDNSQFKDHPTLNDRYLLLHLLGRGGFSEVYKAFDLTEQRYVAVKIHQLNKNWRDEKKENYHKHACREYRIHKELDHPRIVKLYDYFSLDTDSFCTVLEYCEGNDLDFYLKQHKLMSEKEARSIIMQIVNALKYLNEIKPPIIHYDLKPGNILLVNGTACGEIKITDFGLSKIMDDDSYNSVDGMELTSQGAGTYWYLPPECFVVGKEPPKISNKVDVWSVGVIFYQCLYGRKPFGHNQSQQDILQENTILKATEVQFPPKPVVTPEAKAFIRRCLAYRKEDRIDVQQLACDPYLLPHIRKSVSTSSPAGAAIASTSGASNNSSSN

[10] = biological target: T10, KinomeScan kinase panel (Homo sapiens, UniProt P00533, DEL752-759)
T10 construct: purchased DiscoveRx (KinomeScan)
T10 sequence (P00533 with tags, fused parts or gaps DEL752-759): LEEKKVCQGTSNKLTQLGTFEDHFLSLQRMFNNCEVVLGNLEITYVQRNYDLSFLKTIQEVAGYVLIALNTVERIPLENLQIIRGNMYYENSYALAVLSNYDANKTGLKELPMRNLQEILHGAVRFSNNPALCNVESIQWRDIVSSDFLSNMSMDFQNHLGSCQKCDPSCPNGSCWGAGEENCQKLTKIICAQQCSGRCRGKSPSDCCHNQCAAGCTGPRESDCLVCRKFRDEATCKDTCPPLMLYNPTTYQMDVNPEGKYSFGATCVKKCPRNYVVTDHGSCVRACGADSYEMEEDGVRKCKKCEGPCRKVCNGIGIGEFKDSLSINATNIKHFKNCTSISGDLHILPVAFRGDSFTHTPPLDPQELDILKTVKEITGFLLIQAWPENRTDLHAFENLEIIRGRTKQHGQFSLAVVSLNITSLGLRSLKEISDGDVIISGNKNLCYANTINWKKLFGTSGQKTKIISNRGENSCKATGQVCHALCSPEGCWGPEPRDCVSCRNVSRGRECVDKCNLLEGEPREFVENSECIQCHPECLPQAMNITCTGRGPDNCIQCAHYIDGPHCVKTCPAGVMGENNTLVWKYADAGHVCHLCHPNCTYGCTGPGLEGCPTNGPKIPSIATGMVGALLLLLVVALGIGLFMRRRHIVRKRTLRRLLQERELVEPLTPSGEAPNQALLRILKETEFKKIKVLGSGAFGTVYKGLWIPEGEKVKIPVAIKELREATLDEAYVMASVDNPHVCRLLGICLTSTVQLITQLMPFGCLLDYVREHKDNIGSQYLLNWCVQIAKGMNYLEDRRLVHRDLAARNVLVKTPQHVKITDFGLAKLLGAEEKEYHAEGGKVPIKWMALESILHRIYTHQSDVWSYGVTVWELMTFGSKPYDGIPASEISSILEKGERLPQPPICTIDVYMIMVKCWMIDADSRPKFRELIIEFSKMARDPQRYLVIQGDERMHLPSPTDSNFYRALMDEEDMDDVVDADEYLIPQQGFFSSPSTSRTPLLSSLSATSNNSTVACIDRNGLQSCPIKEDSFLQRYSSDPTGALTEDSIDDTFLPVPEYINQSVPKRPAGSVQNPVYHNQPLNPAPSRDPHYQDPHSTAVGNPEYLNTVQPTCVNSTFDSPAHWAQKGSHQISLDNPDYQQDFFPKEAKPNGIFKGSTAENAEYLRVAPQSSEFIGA

[11] = biological target: T11, KinomeScan kinase panel (Homo sapiens, UniProt Q9BYT3); details: read-out: score (%)
T11 construct: purchased DiscoveRx (KinomeScan)
T11 sequence (Q9BYT3 whole entry): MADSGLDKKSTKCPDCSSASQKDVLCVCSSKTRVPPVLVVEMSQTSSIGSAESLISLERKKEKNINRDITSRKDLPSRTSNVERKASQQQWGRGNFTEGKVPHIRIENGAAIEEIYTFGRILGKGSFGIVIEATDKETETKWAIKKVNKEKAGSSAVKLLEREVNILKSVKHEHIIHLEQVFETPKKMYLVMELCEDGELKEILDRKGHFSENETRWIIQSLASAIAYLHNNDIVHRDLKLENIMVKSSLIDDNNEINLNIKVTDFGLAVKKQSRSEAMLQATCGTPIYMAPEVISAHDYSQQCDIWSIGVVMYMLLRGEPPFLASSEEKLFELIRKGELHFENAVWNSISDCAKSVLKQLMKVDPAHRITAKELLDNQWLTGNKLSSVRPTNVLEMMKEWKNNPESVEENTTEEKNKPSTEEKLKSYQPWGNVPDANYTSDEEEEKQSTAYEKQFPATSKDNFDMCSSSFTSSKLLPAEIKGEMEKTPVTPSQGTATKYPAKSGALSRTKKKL

Row | Structure (SMILES) | remaining binding at 10 µM [1] | remaining binding at 10 µM [2] | remaining binding at 10 µM [3] | score (%) [4] | remaining binding at 10 µM ([5]; kinase RPS6KA3(Kin.Dom.1-N-terminal)) | remaining binding at 10 µM ([6]; kinase SLK) | remaining binding at 10 µM [7] | remaining binding at 10 µM [8] | remaining binding at 10 µM ([9]; kinase TLK2, 10 µM) | score (%) [10] | remaining binding at 10 µM ([11]; kinase STK33, 10 µM) | remaining binding at 10 µM ([5]; RPS6KA3(Kin.Dom.1)) | remaining binding at 10 µM ([6]; SLK) | remaining binding at 10 µM ([9]; TLK2, 10 µM) | score (%) ([10]; EGFR(S752-I759del), 10 µM) | remaining binding at 10 µM ([11]; STK33, 10 µM) | remaining binding at 10 µM ([5]; kinase RSK2(Kin.Dom.1-N-terminal))
1 | CCN1CCN(Cc2ccc(NC(=O)c3ccc(C)c(NC(=O)c4cncc(-c5cccs5)c4)c3)cc2C(F)(F)F)CC1 [ALW-II-41-27] | > 30% | > 30% | > 30% | nb (Hits values higher than 30% were considered negative (no binding: nb)) | > 30% | 5% | > 30% | > 30% | > 30% | 3% | > 30% |  |  |  |  |  | 
2 | CCN1CCN(Cc2ccc(NC(=O)c3ccc(C)c(/C=C/c4cnc5[nH]ccc5c4Cl)c3)cc2C(F)(F)F)CC1 [HG-6-63-01, (E)-3-(2-(4-chloro-1H-pyrrolo[2,3-b]pyridin-5-yl)vinyl)-N-(4-((4-ethylpiperazin-1-yl)methyl)-3-(trifluoromethyl)phenyl)-4-methylbenzamide] | > 30% | > 30% | 30% | nb (Hits values higher than 30% were considered negative (no binding: nb)) |  |  | > 30% | > 30% |  |  |  | > 30% | 0.85% | > 30% | 0% | 23% | 
3 | CCN1CCN(Cc2ccc(NC(=O)c3ccc(C)c(C#Cc4cccnc4)c3)cc2C(F)(F)F)CC1 [XMD15-44] | > 30% | > 30% | 0% | 10% |  | 0.1% | > 30% | 100% | 100% |  | 14% |  |  |  | 0.9% |  | 16%
